Data from patent publication US20190225650A1, “PEPTIDOMIMETIC MACROCYCLES AND USE THEREOF IN REGULATING HIF1ALPHA” (AILERON THERAPEUTICS, INC., priority 2013, published 2019).
Bridge positions count the residues as written; N and C are the ends. Square brackets hold non-standard residues; d marks the D form. Peptide text beside a SMILES is read from it. R8 = C=CCCCCCC[C@@](C)(N)C(=O)O; S5 = C=CCCC[C@](C)(N)C(=O)O; Nle = CCCC[C@H](N)C(=O)O

How the values were obtained:
[1] = molecular target: T1, flag-tagged HIF1α (AA 786-826) / His6-tagged p300 (AA 323-423) complex (Homo sapiens, UniProt Q09472); experiment: HIF1α p300 displacement assay (TR FRET, +CHAPS); type: binding; conditions: read-out: IC50 (nM) (HIF1α_p300 Displacement + CHAPS)
T1 construct: His6-tagged p300 (AA 323-423); made in house; host or cells: E. coli (pETDuet vector)
Outline: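 The co-expressed flag-HIF1α (786-826)/His6-p300 (323-423) complex, purified from E. coli with 0.1 mM ZnSO4, was used at 300 nM final with competitor peptides for 1 h at room temperature. Buffer was 150 mM NaCl, 20 mM HEPES pH 7.4, 7.5 mM CHAPS and 1 mM DTT. Anti-Flag-K (0.5 μM) and anti-His-D2 (4 nM) were then added for 2 h, and IC50s were fitted from the TR-FRET ratio.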

HRE-bla ME-180 cells [2] = experiment: Reporter gene assay (HRE-bla ME-180 HIF reporter, GeneBLAzer); type: cell-based, human; conditions: for EC50: 24 hour normoxia
Outline: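 A FRET β-lactamase readout of HIF transcription was used. After compound treatment in 0.3% DMSO/media under normoxic conditions, 20 μl of 6× LiveBLAzer-FRET B/G (CCF4-AM) substrate was added. Plates sat 3 hr at room temperature in the dark and were read at 409 Ex/460Em and 409Ex/530Em on a Synergy 2. Inhibition was compared against DMSO vehicle controls, with chetomin as positive control.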

HRE-bla ME-180 cells [3] = experiment: Cell proliferation assay (viability, MTT, 1% FBS); type: cell-based, human
Outline: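 ME-180 cells (2×10^4/well) in Opti-MEM with 1% FBS were pretreated 16 h under normoxia (21% O2), vehicle 0.5% DMSO final. Incubation then continued under normoxia or hypoxia (1% O2); viable cells quantified by MTT-type CellTiter 96 assay.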

Compound	IC50 [1] [nM]	EC50 (HRE-bla ME-180 cells [2]) [µM]	18 h Avg % max inhibition at top conc (HIF Rptr-24 hrs normoxia) (μM) (HRE-bla ME-180 cells [2])	Viability 1% FBS AVG (MTT V3-24 hr Normoxia) (μM) (HRE-bla ME-180 cells [3])
CCCC[C@H](NC(=O)[C@H](CCC(=O)O)NC(=O)[C@]1(C)CCCC=CCCCCCC[C@@](C)(NC(=O)[C@H](CCC(=O)O)NC(=O)[C@H](C)NC(=O)[C@H](C)NC(=O)[C@H](C)NC(=O)[C@H](C)NC(=O)[C@]2(C)CCCC=CCCCCCC[C@@](C)(NC(=O)[C@H](CCC(=O)O)NC(=O)CNC(=O)[C@H](CCC(N)=O)NC(=O)[C@H](CC(C)C)NC(=O)[C@H](CC(C)C)NC(C)=O)C(=O)N[C@@H](CC(C)C)C(=O)N[C@@H](CC(C)C)C(=O)N[C@@H](CCCNC(=N)N)C(=O)N[C@@H](C)C(=O)N[C@@H](CC(C)C)C(=O)N[C@@H](CC(=O)O)C(=O)N2)C(=O)N[C@@H](C(C)C)C(=O)N[C@@H](CC(C)C)C(=O)N[C@@H](CCCC)C(=O)N[C@@H](CO)C(=O)N[C@@H](CC(C)C)C(=O)N[C@@H](C(C)C)C(=O)N1)C(N)=O [SP-352] (Ac-LLQGE[R8]LLRALD[S5]AAAAE[R8]VL[Nle]SLV[S5]E[Nle]-NH2; staple 6-13, 19-26)	≤ 200	> 30	++ (≤10 but <25: ++)	++++ (≥30: ++++)
CC[C@H](C)[C@H](NC(=O)[C@H](Cc1ccccc1)NC(C)=O)C(=O)N[C@@H](CC(=O)O)C(=O)N[C@@H](CCC(=O)O)C(=O)N[C@@]1(C)CCCC=CCCC[C@@](C)(C(=O)N[C@@H](CC(C)C)C(=O)N[C@H](C(=O)N[C@H](C(=O)N[C@@H](CCC(=O)O)C(=O)N[C@@H](CCSC)C(=O)N[C@@H](C)C(=O)N[C@@H](C)C(=O)N[C@@H](C)C(N)=O)[C@@H](C)CC)C(C)C)NC(=O)[C@H](CCSC)NC(=O)[C@H](CC(C)C)NC(=O)[C@H](C(C)C)NC1=O [SP-117] (Ac-FIDE[S5]VLM[S5]LVIEMAAA-NH2; staple 5-9)	> 700	> 30	+++ (≤25 but <50: +++)	++++ (≥30: ++++)
CCCC[C@@H]1NC(=O)[C@H](CC(C)C)NC(=O)[C@H](C(C)C)NC(=O)[C@@](C)(NC(=O)[C@H](CCC(=O)O)NC(=O)[C@H](CC(=O)O)NC(=O)[C@@H](NC(=O)[C@H](Cc2ccccc2)NC(C)=O)[C@@H](C)CC)CCCC=CCCC[C@@](C)(C(=O)N[C@@H](CC(C)C)C(=O)N[C@H](C(=O)N[C@H](C(=O)N[C@@H](CCC(=O)O)C(=O)N[C@@H](CCC(N)=O)C(=O)N[C@@H](C)C(=O)N[C@@H](CC(C)C)C(N)=O)[C@@H](C)CC)C(C)C)NC1=O [SP-146] (Ac-FIDE[S5]VL[Nle][S5]LVIEQAL-NH2; staple 5-9)	> 700	> 30	+++ (≤25 but <50: +++)	++++ (≥30: ++++)
CCCC[C@H](NC(=O)[C@H](CC(C)C)NC(=O)[C@@H](NC(=O)[C@H](CCC(=O)O)NC(=O)[C@H](CCC(=O)O)NC(=O)[C@H](CC(=O)O)NC(=O)[C@@H](NC(=O)[C@H](Cc1ccccc1)NC(C)=O)[C@@H](C)CC)C(C)C)C(=O)N[C@@]1(C)CCCC=CCCC[C@@](C)(C(=O)N[C@@H](CCCC)C(=O)N[C@@H](C)C(=O)N[C@@H](Cc2ccccc2)C(N)=O)NC(=O)[C@H]([C@@H](C)CC)NC(=O)[C@H](C(C)C)NC(=O)[C@H](CC(C)C)NC1=O [SP-220] (Ac-FIDEEVL[Nle][S5]LVI[S5][Nle]AF-NH2; staple 9-13)	> 700	> 30	+ (<10: +)	++++ (≥30: ++++)
CCCC[C@H](NC(=O)[C@H](Cc1ccccc1)NC(=O)[C@@H](NC(=O)[C@H](C)NC(=O)[C@H](CCC(N)=O)NC(=O)[C@H](CC(=O)O)NC(=O)[C@@H](NC(=O)[C@H](Cc1ccccc1)NC(C)=O)[C@@H](C)CC)C(C)C)C(=O)N[C@@]1(C)CCCC=CCCC[C@@](C)(C(=O)N[C@@H](CCCC)C(=O)N[C@@H](C)C(=O)N[C@@H](CC(C)C)C(=O)N[C@@H](CC(C)C)C(N)=O)NC(=O)[C@H]([C@@H](C)CC)NC(=O)[C@H](C(C)C)NC(=O)[C@H](CC(N)=O)NC1=O [SP-251] (Ac-FIDQAVF[Nle][S5]NVI[S5][Nle]ALL-NH2; staple 9-13)	> 700	≤ 5	++++ (≥50: ++++)	+ (<5: +)
CCCC[C@H](NC(=O)[C@H](Cc1ccccc1)NC(=O)[C@@H](NC(=O)[C@H](C)NC(=O)[C@H](CCC(N)=O)NC(=O)[C@H](CC(=O)O)NC(=O)[C@@H](NC(=O)[C@H](Cc1ccccc1)NC(C)=O)[C@@H](C)CC)C(C)C)C(=O)N[C@@]1(C)CCCC=CCCC[C@@](C)(C(=O)N[C@@H](CO)C(=O)N[C@@H](C)C(=O)N[C@@H](CC(C)C)C(=O)N[C@@H](CC(C)C)C(N)=O)NC(=O)[C@H]([C@@H](C)CC)NC(=O)[C@H](C(C)C)NC(=O)[C@H](CC(C)C)NC1=O [SP-257] (Ac-FIDQAVF[Nle][S5]LVI[S5]SALL-NH2; staple 9-13)	> 700	5 to 15	++++ (≥50: ++++)	++ (≤5 but <15: ++)

Second part, led by results:

IC50 [1] [nM]	EC50 (HRE-bla ME-180 cells [2]) [µM]	Compound	18 h Avg % max inhibition at top conc (HIF Rptr-24 hrs normoxia) (μM) (HRE-bla ME-180 cells [2])	Viability 1% FBS AVG (MTT V3-24 hr Normoxia) (μM) (HRE-bla ME-180 cells [3])
200 to 400	5 to 15	CCCC[C@@H]1NC(=O)[C@H](CC(C)C)NC(=O)[C@H](C(C)C)NC(=O)[C@@](C)(NC(=O)[C@H](CCC(=O)O)NC(=O)[C@H](CC(=O)O)NC(=O)[C@@H](NC(=O)[C@H](Cc2ccccc2)NC(C)=O)[C@@H](C)CC)CCCC=CCCCC2(CCCC=CCCC[C@](C)(C(=O)N[C@@H](CCC(N)=O)C(=O)N[C@@H](C)C(=O)N[C@@H](CC(C)C)C(N)=O)NC(=O)[C@H]([C@@H](C)CC)NC(=O)[C@H](C(C)C)NC(=O)[C@H](CC(C)C)NC2=O)NC1=O (some centres unmarked) [SP-212]	++++ (≥50: ++++)	++ (≤5 but <15: ++)
≤ 200	> 30	CCCC[C@@H]1NC(=O)[C@H](CC(C)C)NC(=O)[C@](C)(NC(=O)[C@H](CCC(=O)O)NC(=O)[C@H](CCC(=O)O)NC(=O)[C@H](CC(=O)O)NC(=O)[C@@H](NC(=O)[C@H](Cc2ccccc2)NC(C)=O)[C@@H](C)CC)CCCCCCC=CCCC[C@@](C)(C(=O)N[C@@H](CCCC)C(=O)N[C@@H](C)C(=O)N[C@@H](CC(C)C)C(=O)N[C@@H](CC(=O)O)C(=O)N[C@@H](CCCNC(=N)N)C(=O)N[C@H](C(N)=O)[C@@H](C)CC)NC(=O)[C@H]([C@@H](C)CC)NC(=O)[C@H](C(C)C)NC(=O)[C@H](CC(C)C)NC(=O)[C@H](CO)NC1=O [SP-200] (Ac-FIDEE[R8]L[Nle]SLVI[S5][Nle]ALDRI-NH2; staple 6-13)	++++ (≥50: ++++)	++++ (≥30: ++++)
400 to 700	5 to 15	CC[C@H](C)[C@H](NC(=O)[C@H](Cc1ccccc1)NC(C)=O)C(=O)N[C@@H](CC(=O)O)C(=O)N[C@@H](CCC(=O)O)C(=O)N[C@]1(C)CCCCCCC=CCCC[C@@](C)(C(=O)N[C@@H](CCC(=O)O)C(=O)N[C@@H](CCSC)C(=O)N[C@@H](C)C(=O)N[C@@H](CC(C)C)C(N)=O)NC(=O)[C@H](C(C)C)NC(=O)[C@H](CC(C)C)NC(=O)[C@H](CO)NC(=O)[C@H](CCSC)NC(=O)[C@H](CC(C)C)NC(=O)[C@H](C(C)C)NC1=O [SP-177] (Ac-FIDE[R8]VLMSLV[S5]EMAL-NH2; staple 5-12)	++++ (≥50: ++++)	+++ (≤15 but <30: +++)
200 to 400	> 30	CCCC[C@@H]1NC(=O)[C@H](CC(C)C)NC(=O)[C@H](C(C)C)NC(=O)[C@@](C)(NC(=O)[C@H](CCC(=O)O)NC(=O)[C@H](CC(=O)O)NC(=O)[C@@H](NC(=O)[C@H](Cc2ccccc2)NC(C)=O)[C@@H](C)CC)CCCC=CCCCC2(CCCC=CCCC[C@](C)(C(=O)N[C@@H](C)C(=O)N[C@@H](C)C(=O)N[C@@H](CC(C)C)C(N)=O)NC(=O)[C@H]([C@@H](C)CC)NC(=O)[C@H](C(C)C)NC(=O)[C@H](CC(C)C)NC2=O)NC1=O (some centres unmarked) [SP-211]	+ (<10: +)	++++ (≥30: ++++)
200 to 400	> 30	CC[C@H](C)[C@H](NC(=O)[C@H](CC(N)=O)NC(=O)[C@@H](NC(=O)[C@H](CCC(N)=O)NC(=O)[C@H](CC(=O)O)NC(=O)[C@H](CC(C)C)NC(=O)[C@H](C)NC(=O)[C@H](CCCNC(=N)N)NC(=O)[C@H](CC(C)C)NC(=O)[C@H](CC(C)C)NC(=O)[C@H](CCC(=O)O)NC(=O)[C@H](CCC(=O)O)NC(=O)CNC(=O)[C@H](CCC(N)=O)NC(=O)[C@H](CC(C)C)NC(=O)[C@H](CC(C)C)NC(C)=O)C(C)C)C(=O)N[C@@H](CC(=O)O)C(=O)N[C@@H](CCC(=O)O)C(=O)N[C@]1(C)CCCCCCC=CCCC[C@@](C)(C(=O)N[C@@H](CCC(=O)O)C(=O)N[C@@H](CCSC)C(N)=O)NC(=O)[C@H](C(C)C)NC(=O)[C@H](CC(C)C)NC(=O)[C@H](CO)NC(=O)[C@H](CCSC)NC(=O)[C@H](CC(C)C)NC(=O)[C@H](C(C)C)NC1=O [SP-320] (Ac-LLQGEELLRALDQVNIDE[R8]VLMSLV[S5]EM-NH2; staple 19-26)	+ (<10: +)	++++ (≥30: ++++)
